# Reference: paper PMC8584173, “The Cytotoxic Effect of Copper (II) Complexes with Halogenated 1,3-Disubstituted Arylthioureas on Cancer and Bacterial Cells” (International Journal of Molecular Sciences, 2021)
# Columns and labels:
# [1] = system: SW480 (human primary colon cancer); experiment: MTT cytotoxicity assay, SW480; assay type: cell-based; conditions: SW480, 72 h
# Experimental: (§1) The human primary (SW480), metastatic (SW620) colon cancer, metastatic prostate cancer (PC3) and human immortal keratinocyte (HaCaT) cell lines were purchased from the American Type Culture Collection (ATCC, Rockville, USA). The cells were cultured in medium according to protocols (MEM for SW480 and SW620, RPMI 1640 for PC3 and DMEM for HaCaT cells) supplemented with 10% fetal bovine serum (FBS), penicillin (100 U/mL) and streptomycin (100 μg/mL) and cultured in 37 °C/ 5% CO2 humidified incubator. The cells were cultured until appropriate confluence was achieved (80–90%). Next, they were harvested by treatment with 0.25% trypsin (Gibco Life Technologies, USA) and used for studies.
# (§2) Cells without studied compounds in medium were used as a control.
# (§3) The cell viability was assessed by determination of MTT salt (3-(4,5-dimethylthiazol-2-yl)-2,5-diphenyltetrazolium bromide) conversion by mitochondrial dehydrogenase. MTT assay was performed as previously described. Experiments were repeated three times. Cell viability was presented as a percentage of MTT reduction in the treated cells versus the control cells. Number of viable cells cultured without studied compounds was assumed to be 100%. Decreased relative MTT level means decreased cell viability. Thiourea complexes with the highest cytotoxic potential assessed by MTT determination (with the lowest IC50) were chosen for subsequent assessments of cytotoxicity mechanisms.
# [2] = system: SW620 (human metastatic colon cancer); experiment: MTT cytotoxicity assay, SW620; assay type: cell-based; conditions: SW620, 72 h
# Experimental: as §1, §2
# as §3, with “viability.” for “viability. Thiourea complexes with the highest cytotoxic potential assessed by MTT determination (with the lowest IC50) were chosen for subsequent assessments of cytotoxicity mechanisms.”
# [3] = system: PC3 (human metastatic prostate cancer); experiment: MTT cytotoxicity assay, PC3; assay type: cell-based; conditions: PC3, 72 h, MTT
# Experimental: as §1, §2, §3
# [4] = system: HaCaT (human immortal keratinocyte cell line); experiment: MTT cytotoxicity assay, HaCaT; assay type: cell-based; conditions: HaCaT normal cells, 72 h
# Experimental: as §1, §2, §3
# all strains = experiment: MIC, all strains; assay type: cell-based
# Experimental: The antimicrobial activity of the compounds was tested on Gram-positive bacteria (Staphylococcus aureus NCTC 4163, Staphylococcus aureus ATCC 25923, Staphylococcus aureus ATCC 6538, Staphylococcus aureus ATCC 29213, Staphylococcus epidermidis ATCC 12228, Staphylococcus epidermidis ATCC 35984), Gram-negative rods (Escherichia coli ATCC 10538, Escherichia coli ATCC 25922, Pseudomonas aeruginosa ATCC 15442, Pseudomonas aeruginosa ATCC 27863) and yeasts (Candida albicans ATCC 10231, Candida albicans ATCC 90028, Candida parapsilosis ATCC 22019). Hospital methicillin-resistant strains of Staphylococcus aureus and Staphylococcus epidermidis were obtained from the collection of the Department of Pharmaceutical Microbiology, Medical University of Warsaw, Poland.
# Antifungal activities were assessed using Mueller–Hinton agar + 2% glucose and 0.5 µg/mL methylene blue dye medium. Sterile filter paper discs (9 mm diameter, Whatman Number 3 chromatography paper) were dripped with tested compound solutions (in dimethylsulfoxide, DMSO) to load 400 μg of a given compound per disc. […] The results (diameter of the growth inhibition zone) were read after 18 h of incubation at 35 °C. […] Minimal inhibitory concentrations (the lowest concentration of a tested agent that prevents visible growth of a microorganism) were read after 18 h (bacteria) or 24 h (yeasts) of incubation at 35 °C.
# [5] = system: clinical methicillin-resistant strains of S. aureus (MRSA) and S. epidermidis (MRSE); conditions: cited from earlier work
# [6] = system: standard bacterial strains; design: method as in PMID 29499458; conditions: cited from earlier work
# HaCaT cells [7] = system: HaCaT cells; design: method as in ref 1S; conditions: also printed as 2 mM; ref 1S; cited from earlier work
# colon cancer cells = system: colon cancer cells; design: method as in ref 2S; conditions: at 100 μM, ref 2S; cited from earlier work
# PC3 cells [8] = system: PC3 cells; design: method as in ref 3S; conditions: 200 μM, ref 3S; cited from earlier work
# PANC-1 = system: PANC-1; design: method as in ref 3S; conditions: PANC-1, 100 μM; ref 3S; cited from earlier work
# HaCaT cells [9] = experiment: LDH release assay, HaCaT; assay type: cell-based, human; conditions: doxorubicin (1.5 μM stated for the cancer lines)
# Experimental: The presence of lactate dehydrogenase (LDH) in culture medium indicates a disturbance of the integrity of the cellular membrane. The LDH activity was performed after 72 h incubation of cells (1 × 10^4 cells per well) in 96-well plates with selected compounds according to manufacturer’s protocol (Roche Diagnostics, Germany), as was described by Chrzanowska et al.. Compound mediated cytotoxicity was determined using equation: ((A test sample−A low control)/ (A high control−A low control)) × 100% (A-absorbance), where “low control” means cells in medium with 2% FBS without tested compounds, and “high control” means cells incubated in medium with 2% FBS and 1% Triton X-100 (100% LDH release). The cytotoxicity was expressed as percentage of LDH release as compared with the maximum release of LDH from Triton-X-100-treated cells.
# SW480 cells = experiment: Annexin V-FITC/PI flow cytometry, SW480; assay type: cell-based, human; conditions: SW480, 72 h
# Experimental: (§4) The cells were cultured and harvested under the conditions described in the cell culture section. […] The effect of these compounds on the process of early and late apoptosis and necrosis was determined, as described previously, by dual staining with annexin V-FITC and propidium iodide according to manufacturer’s protocol (Becton Dickinson). The cells that were annexin V-FITC positive and PI-negative were identified as early apoptotic and annexin V-FITC and PI-positive as late apoptotic or necrotic.
# SW620 cells = experiment: Annexin V-FITC/PI flow cytometry, SW620; assay type: cell-based, human; conditions: SW620, 72 h
# Experimental: as §4
# PC3 cells [10] = experiment: Annexin V-FITC/PI flow cytometry, PC3; assay type: cell-based, human; conditions: PC3, 72 h
# Experimental: as §4
# HaCaT cells [11] = experiment: Annexin V-FITC/PI flow cytometry, HaCaT; assay type: cell-based, human; conditions: 72 h
# Experimental: as §4
# interleukin-6 (IL-6) = experiment: IL-6 level assay (ELISA); assay type: cell-based, human; conditions: PC3, IC50 dose, 72 h
# Experimental: IL-6 concentration at all studied cancer cells and normal HaCaT cell lines was measured by ELISA kit (Diaclon SAS Besancon Cedex, France). […] IL-6 in cell culture supernatant was measured using enzyme-linked immunosorbent assay in accordance with the manufacturer’s protocol.
# HaCaT cell = system: HaCaT cell; design: method as in PMID 30248936; conditions: at the concentration 8 µM; cited from earlier work
molecule,measurement,setting,value
"[Cl][Cu][Cl] [CuCl2, copper (II) chloride, reference compound]",IC50,[1],109 ± 7.6 µM
same,IC50,[2],96.3 ± 5.2 µM
same,IC50,[3],106 ± 6.3 µM
same,IC50,[4],114 ± 4.8 µM
same,IC50,[4]; listed as copper (II) chloride,> 100 µM
same,MIC,all strains,≥ 128 µg/mL
copper (II) complex of 1-(3-chloro-4-fluorophenyl)-3-[3-trifluoromethyl)phenylthiourea,MIC,[5],4 to 8 µg/mL
same,MIC,[6],4 to 256 µg/mL
"N.N.[Cl][Pt][Cl] [Cisplatin, reference compound]",IC50,[1],10.4 ± 0.9 µM
same,IC50,[2],6.7 ± 1.1 µM
same,IC50,[4],6.3 ± 0.7 µM
"CN(C)C=O [DMF, dimethylformamide]",concentration at which DMF influenced HaCaT cells,HaCaT cells [7],140 µg/mL
same,LDH release,colon cancer cells,not increase LDH release
same,apoptosis,PC3 cells [8],85%
same,apoptosis,PANC-1,30%
"COc1cccc2c1C(=O)c1c(O)c3c(c(O)c1C2=O)C[C@@](O)(C(=O)CO)C[C@@H]3O[C@H]1C[C@H](N)[C@H](O)[C@H](C)O1 [Doxorubicin, reference compound]",IC50,[1]; Homo sapiens,0.75 ± 0.1 µM
same,IC50,[4]; Homo sapiens,0.29 ± 0.1 µM
same,LDH release,HaCaT cells [9],80%
same,cells at the necrotic stage,SW480 cells,86%
same,cells at the necrotic stage,SW620 cells,51%
same,cells at the necrotic stage,PC3 cells [10],50%
same,"late apoptosis, % of cells",PC3 cells [10],23%
same,cells at the necrotic stage,HaCaT cells [11],42%
same,"reduction of IL-6 secretion, times",interleukin-6 (IL-6),almost twofold
"O=[N+]([O-])c1cc(NC(=S)Nc2ccc(Cl)c(Cl)c2)ccc1Cl [Compound L5, 1-(4-chloro-3-nitrophenyl)-3-(3,4-dichlorophenyl)thiourea]",decrease in HaCaT cell viability,HaCaT cell,approximately 20%
